# Test results taken from ChEMBL document CHEMBL3885881, “DrugMatrix”.
# Species: Rattus norvegicus
# Experiment: DrugMatrix - Regimen: Daily Repeat
# Type: toxicity, organism-based, Sprague-Dawley
# Parameters: regimen Daily Repeat, gender Male, age 6-8 weeks
# Settings: in vivo, po, route oral GAVAGE, vehicle .5 % CMC; for BASOPHIL / EOSINOPHIL / ERYTHROCYTE COUNT / HEMATOCRIT / HEMOGLOBIN / LEUKOCYTE COUNT / LYMPHOCYTE / MEAN CORPUSCULAR HEMOGLOBIN / MEAN CORPUSCULAR HEMOGLOBIN CONCENTRATION / MEAN CORPUSCULAR VOLUME / MONOCYTE / NEUTROPHIL / PLATELET COUNT: tissue Blood; for ALANINE AMINOTRANSFERASE / ALBUMIN / ALKALINE PHOSPHATASE / ASPARTATE AMINOTRANSFERASE / BLOOD UREA NITROGEN / CHLORIDE / CHOLESTEROL / CREATINE PHOSPHOKINASE / CREATININE / GLUCOSE / PHOSPHORUS / POTASSIUM / SODIUM / TOTAL BILIRUBIN / TOTAL PROTEIN: tissue Plasma
# [1] = 0 mg/kg, 72 h, dose level Control, time 3 day
# [2] = 0 mg/kg, 120 h, dose level Control, time 5 day
# [3] = 25 mg/kg, 72 h, dose level Low, time 3 day
# [4] = 25 mg/kg, 120 h, dose level Low, time 5 day
smiles,measurement,setting,value
C=C(CC)C(=O)c1ccc(OCC(=O)O)c(Cl)c1Cl [ETHACRYNIC ACID],BASOPHIL,[1],0%
same,EOSINOPHIL,[1],0%
same,ERYTHROCYTE COUNT,[1],6.19 x10E6/uL
same,HEMATOCRIT,[1],36.94%
same,HEMOGLOBIN,[1],14.58 G/DL
same,LEUKOCYTE COUNT,[1],11.54 x10E3/uL
same,LYMPHOCYTE,[1],84.8%
same,MEAN CORPUSCULAR HEMOGLOBIN,[1],23.58 pg
same,MEAN CORPUSCULAR HEMOGLOBIN CONCENTRATION,[1],39.44 G/DL
same,MEAN CORPUSCULAR VOLUME,[1],59.76 fL
same,MONOCYTE,[1],1.4%
same,NEUTROPHIL,[1],13.8%
same,PLATELET COUNT,[1],1068.8 x10E3/uL
same,ALANINE AMINOTRANSFERASE,[1],38.17 u/L
same,ALBUMIN,[1],3.88 G/DL
same,ALKALINE PHOSPHATASE,[1],391.33 u/L
same,ASPARTATE AMINOTRANSFERASE,[1],69.83 u/L
same,BLOOD UREA NITROGEN,[1],15 mg/dL
same,CHLORIDE,[1],104.17 MEQ/L
same,CHOLESTEROL,[1],72.17 mg/dL
same,CREATINE PHOSPHOKINASE,[1],174.33 u/L
same,CREATININE,[1],0.58 mg/dL
same,GLUCOSE,[1],192.67 mg/dL
same,PHOSPHORUS,[1],10.52 mg/dL
same,POTASSIUM,[1],6.8 MEQ/L
same,SODIUM,[1],149.67 MEQ/L
same,TOTAL BILIRUBIN,[1],0.78 mg/dL
same,TOTAL PROTEIN,[1],6.28 G/DL
same,BASOPHIL,[2],0%
same,EOSINOPHIL,[2],0.17%
same,ERYTHROCYTE COUNT,[2],6.72 x10E6/uL
same,HEMATOCRIT,[2],40.02%
same,HEMOGLOBIN,[2],15.83 G/DL
same,LEUKOCYTE COUNT,[2],9.5 x10E3/uL
same,LYMPHOCYTE,[2],87.17%
same,MEAN CORPUSCULAR HEMOGLOBIN,[2],23.57 pg
same,MEAN CORPUSCULAR HEMOGLOBIN CONCENTRATION,[2],39.62 G/DL
same,MEAN CORPUSCULAR VOLUME,[2],59.55 fL
same,MONOCYTE,[2],1.67%
same,NEUTROPHIL,[2],11%
same,PLATELET COUNT,[2],1053.67 x10E3/uL
same,ALANINE AMINOTRANSFERASE,[2],26.33 u/L
same,ALBUMIN,[2],4.02 G/DL
same,ALKALINE PHOSPHATASE,[2],316.67 u/L
same,ASPARTATE AMINOTRANSFERASE,[2],61.33 u/L
same,BLOOD UREA NITROGEN,[2],18.67 mg/dL
same,CHLORIDE,[2],108 MEQ/L
same,CHOLESTEROL,[2],65.17 mg/dL
same,CREATINE PHOSPHOKINASE,[2],161.17 u/L
same,CREATININE,[2],0.75 mg/dL
same,GLUCOSE,[2],177.33 mg/dL
same,PHOSPHORUS,[2],9.72 mg/dL
same,POTASSIUM,[2],6.18 MEQ/L
same,SODIUM,[2],150.5 MEQ/L
same,TOTAL BILIRUBIN,[2],0.68 mg/dL
same,TOTAL PROTEIN,[2],6.55 G/DL
same,BASOPHIL,[3],0%
same,EOSINOPHIL,[3],0%
same,ERYTHROCYTE COUNT,[3],5.63 x10E6/uL
same,HEMATOCRIT,[3],33.93%
same,HEMOGLOBIN,[3],13.5 G/DL
same,LEUKOCYTE COUNT,[3],12.83 x10E3/uL
same,LYMPHOCYTE,[3],81%
same,MEAN CORPUSCULAR HEMOGLOBIN,[3],23.97 pg
same,MEAN CORPUSCULAR HEMOGLOBIN CONCENTRATION,[3],39.8 G/DL
same,MEAN CORPUSCULAR VOLUME,[3],60.23 fL
same,MONOCYTE,[3],2.67%
same,NEUTROPHIL,[3],16.33%
same,PLATELET COUNT,[3],1220 x10E3/uL
same,ALANINE AMINOTRANSFERASE,[3],34.67 u/L
same,ALBUMIN,[3],3.8 G/DL
same,ALKALINE PHOSPHATASE,[3],289.67 u/L
same,ASPARTATE AMINOTRANSFERASE,[3],61.67 u/L
same,BLOOD UREA NITROGEN,[3],16.33 mg/dL
same,CHLORIDE,[3],102.67 MEQ/L
same,CHOLESTEROL,[3],78 mg/dL
same,CREATINE PHOSPHOKINASE,[3],150.67 u/L
same,CREATININE,[3],0.67 mg/dL
same,GLUCOSE,[3],178 mg/dL
same,PHOSPHORUS,[3],11.3 mg/dL
same,POTASSIUM,[3],6.67 MEQ/L
same,SODIUM,[3],148 MEQ/L
same,TOTAL BILIRUBIN,[3],0.5 mg/dL
same,TOTAL PROTEIN,[3],6.23 G/DL
same,BASOPHIL,[4],0%
same,EOSINOPHIL,[4],0%
same,ERYTHROCYTE COUNT,[4],6.67 x10E6/uL
same,HEMATOCRIT,[4],39.93%
same,HEMOGLOBIN,[4],15.7 G/DL
same,LEUKOCYTE COUNT,[4],13.37 x10E3/uL
same,LYMPHOCYTE,[4],91.33%
same,MEAN CORPUSCULAR HEMOGLOBIN,[4],23.6 pg
same,MEAN CORPUSCULAR HEMOGLOBIN CONCENTRATION,[4],39.37 G/DL
same,MEAN CORPUSCULAR VOLUME,[4],59.9 fL
same,MONOCYTE,[4],2.33%
same,NEUTROPHIL,[4],6.33%
same,PLATELET COUNT,[4],1183.33 x10E3/uL
same,ALANINE AMINOTRANSFERASE,[4],25 u/L
same,ALBUMIN,[4],4.03 G/DL
same,ALKALINE PHOSPHATASE,[4],323.33 u/L
same,ASPARTATE AMINOTRANSFERASE,[4],56.67 u/L
same,BLOOD UREA NITROGEN,[4],14.33 mg/dL
same,CHLORIDE,[4],104.33 MEQ/L
same,CHOLESTEROL,[4],77.33 mg/dL
same,CREATINE PHOSPHOKINASE,[4],160 u/L
same,CREATININE,[4],0.6 mg/dL
same,GLUCOSE,[4],169 mg/dL
same,PHOSPHORUS,[4],10.6 mg/dL
same,POTASSIUM,[4],6.23 MEQ/L
same,SODIUM,[4],151 MEQ/L
same,TOTAL BILIRUBIN,[4],0.6 mg/dL
same,TOTAL PROTEIN,[4],6.77 G/DL
